Laboratory results taken from ChEMBL document CHEMBL1240454, “1,3-Dioxolane-based ligands incorporating a lactam or imide moiety: structure-affinity/activity relationship at alpha1-adrenoceptor subtypes and at 5-HT1A receptors” (Eur J Med Chem, 2010).

Assays:
Rattus norvegicus [1] = species: Rattus norvegicus; assay: Selectivity for adrenergic alpha1A receptor in Wistar rat prostatic vas deferens over adrenergic Alpha-1D receptor in Wistar rat thoracic aorta; type: tissue-based
[2] = biological target: T1, Alpha-1D adrenergic receptor (Rattus norvegicus) (UniProt P23944); assay: Antagonist activity at adrenergic Alpha-1D receptor in Wistar rat thoracic aorta assessed as inhibition of (-)-norepinephrine-induced vasocontraction treated 30 mins before (-)norepinephrine challenge; type: functional, tissue-based
T1 sequence (whole entry): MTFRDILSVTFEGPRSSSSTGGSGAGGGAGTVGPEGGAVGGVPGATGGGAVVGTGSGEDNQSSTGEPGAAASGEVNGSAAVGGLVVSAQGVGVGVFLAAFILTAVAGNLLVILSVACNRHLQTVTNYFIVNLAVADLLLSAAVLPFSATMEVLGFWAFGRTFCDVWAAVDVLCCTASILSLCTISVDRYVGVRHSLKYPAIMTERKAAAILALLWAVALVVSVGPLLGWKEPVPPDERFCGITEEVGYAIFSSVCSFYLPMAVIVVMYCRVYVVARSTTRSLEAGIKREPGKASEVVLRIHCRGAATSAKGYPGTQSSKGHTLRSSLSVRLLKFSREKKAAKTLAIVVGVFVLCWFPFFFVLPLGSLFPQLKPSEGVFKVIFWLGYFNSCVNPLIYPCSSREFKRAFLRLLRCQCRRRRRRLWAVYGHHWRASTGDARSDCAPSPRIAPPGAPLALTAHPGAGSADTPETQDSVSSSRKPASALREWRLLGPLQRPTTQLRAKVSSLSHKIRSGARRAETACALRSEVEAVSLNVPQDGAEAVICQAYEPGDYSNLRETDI

[3] = biological target: T2, Alpha-1D adrenergic receptor (Homo sapiens, UniProt P25100)
T2 sequence (P25100 whole entry): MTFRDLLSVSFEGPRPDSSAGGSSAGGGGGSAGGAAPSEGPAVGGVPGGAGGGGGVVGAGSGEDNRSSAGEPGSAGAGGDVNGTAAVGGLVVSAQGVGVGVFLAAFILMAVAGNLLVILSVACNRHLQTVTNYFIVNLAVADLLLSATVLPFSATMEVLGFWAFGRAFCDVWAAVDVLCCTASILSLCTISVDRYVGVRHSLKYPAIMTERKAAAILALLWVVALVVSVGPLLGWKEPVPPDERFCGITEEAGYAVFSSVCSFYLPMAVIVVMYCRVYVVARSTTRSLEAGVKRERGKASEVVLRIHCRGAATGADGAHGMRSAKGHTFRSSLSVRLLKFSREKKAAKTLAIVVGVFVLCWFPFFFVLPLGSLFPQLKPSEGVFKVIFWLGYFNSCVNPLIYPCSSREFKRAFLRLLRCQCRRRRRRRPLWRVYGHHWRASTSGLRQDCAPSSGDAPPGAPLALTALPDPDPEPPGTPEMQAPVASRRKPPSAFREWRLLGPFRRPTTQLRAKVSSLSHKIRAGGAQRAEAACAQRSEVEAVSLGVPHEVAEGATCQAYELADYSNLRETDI
Description: Displacement [3H]prazosin of human recombinant Alpha-1D adrenergic receptor expressed in CHO cells by rapid filtration technique

[4] = biological target: T3, Alpha-1A adrenergic receptor (Homo sapiens, UniProt P35348)
T3 sequence (P35348 whole entry): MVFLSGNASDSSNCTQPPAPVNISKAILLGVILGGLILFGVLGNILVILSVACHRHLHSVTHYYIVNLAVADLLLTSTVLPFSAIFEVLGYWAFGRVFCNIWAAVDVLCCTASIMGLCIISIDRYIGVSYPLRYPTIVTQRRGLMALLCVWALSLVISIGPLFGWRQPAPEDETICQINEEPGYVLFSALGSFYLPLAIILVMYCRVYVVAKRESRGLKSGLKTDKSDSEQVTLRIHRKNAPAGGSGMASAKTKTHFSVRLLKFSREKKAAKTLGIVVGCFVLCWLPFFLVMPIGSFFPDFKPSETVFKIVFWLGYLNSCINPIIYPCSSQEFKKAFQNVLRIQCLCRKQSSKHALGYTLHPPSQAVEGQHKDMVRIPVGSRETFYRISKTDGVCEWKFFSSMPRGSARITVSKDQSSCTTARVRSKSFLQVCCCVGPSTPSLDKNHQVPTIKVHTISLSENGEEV
Description: Displacement [3H]prazosin of human recombinant alpha1A adrenergic receptor expressed in CHO cells by rapid filtration technique

[5] = biological target: T4, Alpha-1B adrenergic receptor (Rattus norvegicus) (UniProt P15823); assay: Antagonist activity at adrenergic Alpha-1B receptor in Wistar rat spleen assessed as inhibition of […]-induced tissue contraction treated 30 mins before […] challenge; type: functional, tissue-based
T4 sequence (whole entry): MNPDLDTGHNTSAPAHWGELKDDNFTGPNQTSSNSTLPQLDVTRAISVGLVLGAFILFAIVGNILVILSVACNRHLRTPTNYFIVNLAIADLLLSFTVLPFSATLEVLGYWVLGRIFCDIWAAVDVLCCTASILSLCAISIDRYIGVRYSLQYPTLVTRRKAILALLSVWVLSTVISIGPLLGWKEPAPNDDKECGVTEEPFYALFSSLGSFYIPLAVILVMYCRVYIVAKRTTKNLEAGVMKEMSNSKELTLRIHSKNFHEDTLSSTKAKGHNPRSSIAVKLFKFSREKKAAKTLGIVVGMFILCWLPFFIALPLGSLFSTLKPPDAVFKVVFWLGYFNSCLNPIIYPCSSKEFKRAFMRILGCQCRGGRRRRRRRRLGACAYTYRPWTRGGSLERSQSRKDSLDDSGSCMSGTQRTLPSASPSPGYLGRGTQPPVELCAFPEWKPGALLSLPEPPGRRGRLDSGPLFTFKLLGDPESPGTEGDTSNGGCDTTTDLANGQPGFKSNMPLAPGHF

Rattus norvegicus [6] = species: Rattus norvegicus; assay: Selectivity for adrenergic Alpha-1B receptor in Wistar rat spleen over adrenergic alpha1A receptor in Wistar rat prostatic vas deferens; type: tissue-based
[7] = biological target: T5, 5-hydroxytryptamine receptor 1A (Homo sapiens, UniProt P08908)
T5 sequence (P08908 whole entry): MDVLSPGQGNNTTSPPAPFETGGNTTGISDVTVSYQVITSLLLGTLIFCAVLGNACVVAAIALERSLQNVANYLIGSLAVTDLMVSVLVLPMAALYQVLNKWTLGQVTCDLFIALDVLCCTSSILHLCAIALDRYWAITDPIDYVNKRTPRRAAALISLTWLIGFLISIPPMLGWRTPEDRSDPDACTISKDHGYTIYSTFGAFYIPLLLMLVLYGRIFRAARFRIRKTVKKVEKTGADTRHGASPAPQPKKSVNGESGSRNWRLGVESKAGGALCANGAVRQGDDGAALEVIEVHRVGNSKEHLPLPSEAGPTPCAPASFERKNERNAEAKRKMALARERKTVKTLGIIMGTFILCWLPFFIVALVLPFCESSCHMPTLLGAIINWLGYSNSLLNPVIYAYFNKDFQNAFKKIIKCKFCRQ

| SMILES | pKb [2] | Ki [3] | Ki [4] | pKb [5] | Selectivity ratio (Rattus norvegicus [6]) | Ki [7] | Selectivity ratio (Rattus norvegicus [1]) |
| --- | --- | --- | --- | --- | --- | --- | --- |
| COc1ccccc1N1CCN(C[C@@H]2CO[C@@](CN3C(=O)CC4(CCCC4)CC3=O)(c3ccccc3)O2)CC1 (relative stereo) | 8.51 | 1.38 nM | 10 nM | 7.47 | 0.7 | 1.26 nM | 17 |
| COc1ccccc1N1CCN(CC2OCC(c3ccccc3)(c3ccccc3)O2)CC1 (stereo unspecified) | 8.14 | 0.813 nM | 0.263 nM | 6.69 | 36 | 22.9 nM | 0.8 |
| COc1ccccc1N1CCN(C[C@H]2CO[C@@](CN3CCCCC3=O)(c3ccccc3)O2)CC1 | 6.74 | 14.1 nM | 0.871 nM | 7.93 | 0.3 | 5.25 nM | 0.3 |
| COc1ccccc1N1CCN(C[C@@H]2CO[C@@](CN3CCCCCC3=O)(c3ccccc3)O2)CC1 (relative stereo) | 7.75 | 2.51 nM | 26.9 nM | 8.08 | 0.1 | 7.24 nM | 4 |
| COc1ccccc1N1CCN(C[C@H]2CO[C@@](CN3C(=O)CC4(CCCC4)CC3=O)(c3ccccc3)O2)CC1 (relative stereo) | 6.78 | 4.79 nM | 2.04 nM | 7.4 | 3 | 2.63 nM | 0.1 |
| COc1ccccc1N1CCN(C[C@H]2CO[C@@](CN3CCCCCC3=O)(c3ccccc3)O2)CC1 (relative stereo) | 7.57 | 4.07 nM | 0.631 nM | 8.42 | 4 | 5.62 nM | 0.04 |

The next lines start with results.

| pKb [2] | Ki [3] | Ki [4] | pKb [5] | Selectivity ratio (Rattus norvegicus [6]) | Ki [7] | SMILES | Selectivity ratio (Rattus norvegicus [1]) |
| --- | --- | --- | --- | --- | --- | --- | --- |
| 6.19 | 32.4 nM | 6.61 nM | 7.12 | 1 | 3.16 nM | COc1ccccc1N1CCN(C[C@H]2CO[C@@](CN3C(=O)CCCC3=O)(c3ccccc3)O2)CC1 (relative stereo) | 0.1 |
| 7.29 | 1.48 nM | 11.5 nM | 8.3 | 0.1 | 5.13 nM | COc1ccccc1N1CCN(C[C@@H]2CO[C@@](CN3CCCCC3=O)(c3ccccc3)O2)CC1 (relative stereo) | 1 |
| 6.79 | 13.5 nM | 1.38 nM | 8.29 | 0.5 | 6.92 nM | COc1ccccc1N1CCN(C[C@H]2CO[C@](CN3CCCC3=O)(c3ccccc3)O2)CC1 (relative stereo) | 0.07 |
| 6.42 | 39.8 nM | 2.88 nM | 7.04 | 3 | 5.13 nM | COc1ccccc1N1CCN(C[C@H]2CO[C@@](CN3C(=O)CCC3=O)(c3ccccc3)O2)CC1 (relative stereo) | 0.1 |
| 7.43 | 5.25 nM | 12.6 nM | 8.17 | 0.2 | 11.2 nM | COc1ccccc1N1CCN(C[C@@H]2CO[C@](CN3CCCC3=O)(c3ccccc3)O2)CC1 (relative stereo) | 1 |
| 7.78 | 16.2 nM | 40.7 nM | 7.11 | 2 | 25.7 nM | COc1ccccc1N1CCN(C[C@@H]2CO[C@@](CN3C(=O)CCC3=O)(c3ccccc3)O2)CC1 (relative stereo) | 3 |
| 7.57 | 8.51 nM | 21.4 nM | 7.35 | 1 | 44.7 nM | COc1ccccc1N1CCN(C[C@@H]2CO[C@@](CN3C(=O)CCCC3=O)(c3ccccc3)O2)CC1 (relative stereo) | 2 |
